Measured values taken from patent publication US7728155B2, “Dihydrobenzofuranyl alkanamines and methods for using same as cns agents” (Wyeth LLC, priority 2003, dated 2010).
Where a name gives a salt, the structure may show the parent alone.

Target: T1, human 5-hydroxytryptamine-2C (h5-HT2C) receptor (Homo sapiens, UniProt P28335)
T1 construct: expressed in transfected cells; host or cells: CHO (Chinese Hamster Ovary) cells; membranes
T1 sequence (P28335 33-458): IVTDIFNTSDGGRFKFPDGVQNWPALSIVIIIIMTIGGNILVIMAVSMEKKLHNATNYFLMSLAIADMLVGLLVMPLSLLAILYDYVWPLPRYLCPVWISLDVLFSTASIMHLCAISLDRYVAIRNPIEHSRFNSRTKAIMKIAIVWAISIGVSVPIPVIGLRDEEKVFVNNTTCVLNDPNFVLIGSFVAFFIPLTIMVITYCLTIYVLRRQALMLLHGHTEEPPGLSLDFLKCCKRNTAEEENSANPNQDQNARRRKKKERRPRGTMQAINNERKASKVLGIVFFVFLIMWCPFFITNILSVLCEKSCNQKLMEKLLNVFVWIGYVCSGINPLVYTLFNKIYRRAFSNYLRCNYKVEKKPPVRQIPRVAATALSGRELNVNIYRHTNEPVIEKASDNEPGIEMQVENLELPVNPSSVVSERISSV
Assay: [125I]DOI binding affinity at h5-HT2C receptor, CHO cell membranes
Settings: [125I]DOI displacement, CHO membranes expressing h5-HT2C; read-out: 5-HT2C Affinity Ki

Structure (SMILES)	Ki [nM]
CNCC1Cc2c(Cl)cc3c(c2O1)CCC3 (racemic) [Example 28, (±)-1-(4-chloro-3,6,7,8-tetrahydro-2H-indeno[4,5-b]furan-2-yl)-N-methylmethanamine]	11

Tested on: not given
Assay: not given
Settings: not given

Structure (SMILES)	melting point
NCC1Cc2ccc3c(c2O1)CCCC3 (racemic) (as salt: hydrochloride) [Example 4, (±)-1-(2,3,6,7,8,9-hexahydronaphtho[1,2-b]furan-2-yl)methanamine]	> 220 °C (dec.)
Cc1cc2c(c3c1CCC3)OC(CN)C2 (racemic) (as salt: hydrochloride) [Example 7, (±)-1-(5-methyl-3,6,7,8-tetrahydro-2H-indeno[4,5-b]furan-2-yl)methanamine]	> 200 °C (dec.)
NCC1Cc2ccc3ccccc3c2O1 (racemic) (as salt: hydrochloride) [Example 10, (±)-1-(2,3-dihydronaphtho[1,2-b]furan-2-yl)methanamine]	> 250 °C (dec.)
NCC1Cc2cc3c(cc2O1)CCCC3 (racemic) (as salt: hydrochloride) [Example 13, (±)-1-(2,3,5,6,7,8-hexahydronaphtho[2,3-b]furan-2-yl)methanamine]	> 225 °C
NCC1Cc2c(ccc3c2CCCC3)O1 (racemic) (as salt: hydrochloride) [Example 14, (±)-1-(1,2,6,7,8,9-hexahydronaphtho[2,1-b]furan-2-yl)methanamine]	> 225 °C
COc1cc2c(c3c1C1CCC3CC1)OC(CN)C2 (racemic) (as salt: hydrochloride) [Example 19, (±)-1-(5-methoxy-2,3,6,7,8,9-hexahydro-6,9-ethanonaphtho[1,2-b]furan-2-yl)methanamine]	> 210 °C
NCC1Cc2cc(Cl)c3ccccc3c2O1 (racemic) (as salt: hydrochloride) [Example 23, (±)-1-(5-chloro-2,3-dihydronaphtho[1,2-b]furan-2-yl)methanamine]	269 to 271 °C
CNCC1Cc2cc(Cl)c3ccccc3c2O1 (racemic) (as salt: hydrochloride) [Example 24, (±)-1-(5-chloro-2,3-dihydronaphtho[1,2-b]furan-2-yl)-N-methylmethanamine]	224 to 226 °C
NCC1Cc2c(Cl)cc3c(c2O1)CCC3 (racemic) (as salt: hydrochloride) [Example 25, (±)-1-(4-chloro-3,6,7,8-tetrahydro-2H-indeno[4,5-b]furan-2-yl)methanamine]	251 to 254 °C
NCC1Cc2cc(Cl)c3c(c2O1)CCC3 (racemic) (as salt: hydrochloride) [Example 29, (±)-1-(5-chloro-3,6,7,8-tetrahydro-2H-indeno[4,5-b]furan-2-yl)methanamine]	270 °C (dec.)
CNCC1Cc2c(Cl)cc3c(c2O1)CCC3 (racemic) [Example 28, (±)-1-(4-chloro-3,6,7,8-tetrahydro-2H-indeno[4,5-b]furan-2-yl)-N-methylmethanamine]	58 to 60 °C
C[C@@H](N)[C@H]1Cc2ccc3c(c2O1)CCC3 (relative stereo) (as salt: hydrochloride) [Example 22, (2R*)-1-[(2R*)-3,6,7,8-tetrahydro-2H-indeno[4,5-b]furan-2-yl]ethylamine]	> 250 °C
COc1cc2c(c3c1C1CCC3C1)OC(CN)C2 (single isomer, unassigned) (as salt: hydrochloride) [Example 16, (9-methoxy-4-oxatetracyclo[9.2.1.0^2,10.0^3,7]tetradeca-2,7,9-trien-5-yl)methylamine]	> 180 °C (dec.)
COc1cc2c(c3c1C1CCC3C1)OC(CN)C2 (single isomer, unassigned) (as salt: hydrochloride) [Example 17, (9-methoxy-4-oxatetracyclo[9.2.1.0^2,10.0^3,7]tetradeca-2,7,9-trien-5-yl)methylamine]	> 150 °C (dec.)
Cc1cc2c(c3c1CCC3)OC(CN)C2 (single isomer, unassigned; (+)) (as salt: hydrochloride) [Example 8, (+)-1-(5-methyl-3,6,7,8-tetrahydro-2H-indeno[4,5-b]furan-2-yl)methanamine]	> 220 °C
COc1cc2c(c3c1C1CCC3CC1)OC(CN)C2 (single isomer, unassigned; (+)) (as salt: hydrochloride) [Example 20, (+)-1-(5-methoxy-2,3,6,7,8,9-hexahydro-6,9-ethanonaphtho[1,2-b]furan-2-yl)methanamine]	> 220 °C
NCC1Cc2cc(Cl)c3c(c2O1)CCC3 (single isomer, unassigned; (-)) (as salt: hydrobromid) [Example 30, (−)-1-(5-chloro-3,6,7,8-tetrahydro-2H-indeno[4,5-b]furan-2-yl)methanamine]	> 330 °C
NCC1Cc2c(Cl)cc3c(c2O1)CCC3 (single isomer, unassigned; (-)) (as salt: hydrochloride) [Example 26, (−)-1-(4-chloro-3,6,7,8-tetrahydro-2H-indeno[4,5-b]furan-2-yl)methanamine]	265 to 268 °C
